Measurements taken from publication PMC6286318, “Structure-function-guided exploration of the antimicrobial peptide polybia-CP identifies activity determinants and generates synthetic therapeutic candidates” (Communications Biology, 2018).
Entries after “also recorded” stand apart in the source; their conditions may differ. No end group written: not given here.

Tests used:
[1] = Stability assay, resistance to degradation in fetal bovine serum; assay type: in vitro ADME; conditions: GIBCO fetal bovine serum, RP-LC peak area, three independent replicates; for Resistance to protease-mediated degradation in fetal bovine serum (in words): followed up to 6 h
Protocol: Fig. 6 Hemolysis and resistance to protease-mediated degradation of engineered peptides. a Schematic of experimental design and hemolytic assay results of Pol-CP-NH2 and derivatives, where hemolytic activity was evaluated by incubating the peptides (0.1–100 μmol L^−1) with human red blood cells in PBS at room temperature for 1 h. Experiments were performed in three independent replicates. b Resistance to degradation of Pol-CP-NH2 and analogs exposed to fetal bovine serum (FBS) proteases for 6 h. Experiments were done in three independent replicates (statistical significance was determined using one-way ANOVA, *p < 0.039, error bars represent standard deviation values)
The resistance to degradation assay is detailed by Powell et al.[89], and peptides were exposed to GIBCO fetal bovine serum. The reaction kinetics were followed by reverse-phase liquid chromatography and the percentage of remaining peptide was calculated by integrating the peptide peak area.

[2] = Circular dichroism spectroscopy, helical fraction (fH); assay type: physicochemical; conditions: CD
Protocol: Fig. 3 Physicochemical features and structure of Pol-CP-NH2 and Ala-scan analogs. a Circular dichroism spectra of Pol-CP-NH2 and Ala-scan derivatives at 50 µmol L^−1 in water, PBS (pH 7.4) and TFE/Water (3:2, v/v) showing peptides transition from unstructured in water to helically structured in TFE/water. Circular dichroism spectra were recorded after four accumulations at 20 °C, using a 1 mm path length quartz cell, between 260 and 190 nm at 50 nm min^-1, with a bandwidth of 0.5 nm. b MIC (µmol L^−1) average for each peptide against the first set of bacteria (E. coli BL21, P. aeruginosa PA01 and PA14, and S. aureus ATCC12600) in three independent replicates vs. fH in TFE/Water solution, where blue boxes represent peptides with lower activity and red boxes show peptides with higher activity compared to the wild-type. Optimal activity is reached in most of the cases for fH values higher than the wild-type
Fig. 4 Physicochemical features and structure of Pol-CP-NH2 and second-generation analogs. Circular dichroism spectra of the peptides at 50 µmol L^−1 in water, MeOH/Water (1:1, v/v), PBS (pH 7.4), POPC (10 mmol L^−1), POPC:DOPE (3:1, 10 mmol L^−1), POPC:POPG (3:1, 10 mmol L^−1), SDS (20 mmol L^−1), TFE/Water (2:3, 3:2, 4:1, v/v) showing peptides transition from unstructured in water to helically structured in TFE/water. Circular dichroism spectra were recorded after four accumulations at 20 °C, using a 1 mm path length quartz cell, between 260 and 190 nm at 50 nm min^−1, with a bandwidth of 0.5 nm
Circular dichroism experiments were performed on a J-815 Circular Dichroism Spectropolarimeter (Jasco). Measurements conditions are described by Torres et al.[84] Peptides at 50 μmol L^−1 were analyzed in ten different environments: water, PBS (pH 7.4), methanol/water (1:1; v-v), TFE/Water (2:3, 3:2 and 4:1; v-v), 10 mmol L^−1 POPC, 10 mmol L^−1 POPC:DOPE (3:1) and 10 mmol L^−1 POPC:POPG (3:1). Vesicles were prepared according to Torres et al.[35]. A Fourier transform filter was applied to minimize background effects.

[3] = RP-HPLC retention time (correlated with hydrophobicity); assay type: physicochemical; conditions: chromatographic, RP-HPLC Supelcosil C18 (4.6 x 150 mm), 60 Å, 5 μm; A 0.1% TFA/H2O, B 0.1% TFA in 90% ACN/H2O; 5-95% B in 30 minutes; 1.0 mL min-1; 220 nm; correlated with Heliquest hydrophobicity
Protocol: First, theoretical values of physicochemical features such as hydrophobicity, hydrophobic moment, and net positive charge were calculated, and helical wheels were generated using the Heliquest webserver[31] (Table 1 and Supplementary Figure 1). Hydrophobicity values produced by the server were correlated with retention times obtained by RP-HPLC analyses (Supplementary Table 1), confirming the accuracy of the computational predictions. Next, peptides were synthesized and tested against the Gram-negative bacteria Escherichia coli and Pseudomonas aeruginosa, as well as against the Gram-positive bacterium Staphylococcus aureus. We obtained slightly different results from those reported by Souza et al.[30], who described activity against Gram-positive bacteria but poor activity against Gram-negative species. […] MIC results were confirmed by colony-forming unit (CFU) counts of bacteria after one day of exposure to the peptides (Supplementary Figure 2).
Supplem enta r y Ta b le 1. Summary of Pol-CP-NH2 and desi gned anal ogs.
Label Pep t id e Sequence Molecular Ob s erv ed Pu rit y HPLC HC50 MIC SIe Cyt oto xic it y
Weight Molecular (%)b Retention (µmo l L-1)d Av er a g e (µmo l L-1)
(D a) Weight (D a)a Time (min)c (µmo l L-1)
aLC/ESI-MS data were obtained on a Model 6130 Infinity mass spectrometer coupled to a Model 1260 HPLC system (Agilent), using a Phenomenex Gemini C18 column (2.0 […]

[4] = system: HEK293 human embryonic kidney cells; assay: Cytotoxicity assay (MTS); assay type: cell-based; conditions: for Cytotoxic concentration relative to MIC against P. aeruginosa: HEK293, 48 h, MTS, compared with MIC against P. aeruginosa; for Cytotoxicity (concentration showing cytotoxic activity): HEK293, 50,000 cells per well, peptides 0-64 μmol L-1, 37 °C, 48 h, MTS assay, three independent replicates
Protocol: Fig. 7 Cytotoxicity of engineered peptides. a Schematic of the experimental design for cytotoxicity assays of Pol-CP-NH2 and derivatives against HEK293 human embryonic kidney cells. Briefly, cells were cultured in DMEM medium supplemented with FBS and antibiotics at 37 °C and 5% CO2 and b results obtained by seeding HEK293 50,000 cells and incubating with peptides’ solution (0–64 μmol L^−1) at 37 °C for 48 h. Cell viability was measured by MTS assay. All experiments were performed in independent triplicates (heat map values represent mean values of three independent replicates)
Human embryonic kidney 293 (HEK 293) cells were cultured in Dulbecco’s Modified Eagle Medium suplemented with 10% Fetal Bovine Serum and 1% penicillin-streptomycin at 37 °C in 5% CO2. The day before treatment, 50,000 HEK 293 cells were seeded into each well in 96-well plates. The peptides were added at concentrations ranging from 0 to 64 μmol L^−1 and 48 h after exposure, cell viability was measured by means of MTS (dimethylthiazol-carboxymethoxyphenyl-sulfophenyl-tetrazolium) assay. Experiments were performed in three independent replicates for each condition.

[5] = Toxicity to mice in the skin infection model (body weight); assay type: in vivo; conditions: infected mice treated with 64 μmol L-1 peptide; body weight normalized by non-infected mice
Protocol: Fig. 8 In vivo activity of Pol-CP-NH2 and its analogs. a Schematic of the experimental design. Briefly, the back of mice was shaved and an abrasion was generated to damage the stratum corneum and the upper layer of the epidermis. Subsequently, an aliquot of 50 μL containing 5 × 10^7 CFU of P. aeruginosa in PBS was inoculated over each defined area. […] Four animals per group were euthanized and the area of scarified skin was excised two days post-infection b homogenized using a bead beater for 20 min (25 Hz), and serially diluted for CFU quantification (statistical significance was determined using two-way ANOVA followed by Dunnett’s test, ****p < 0.0001). c Mouse body weight measurements throughout the experiment normalized by the body weight of non-infected mice.
The anti-infective activity of peptides against P. aeruginosa strain PA14 in a mouse model was assessed according to Pane et al.[90] CD-1 IGS female mice (six-weeks-old) were used and maintained in accordance with the Guide for the Care and Use of Laboratory Animals in an AAALAC-accredited facility. All procedures were approved by the MIT’s Institutional Animal Care and Use Committee (IACUC), protocol number 1016-064-19. Two independent experiments were performed with 4 mice per group in each condition. Statistical significance was assessed using a one-way ANOVA.

Question: With “GLGTILGLLKSL-NH2 [Peptide 20, [Gly]^1-Pol-CP-NH2]” as the substance, how does the “Resistance to protease-mediated degradation in fetal bovine serum (in words)” value (shortened to “Resistance”) [1] read?
Answer: degraded in a few minutes

Question: For “ILETKLGLLKSE-NH2 [Peptide 19, [Glu]^3-[Lys]^5-[Glu]^12-Pol-CP-NH2]”, which “Helical fraction fH, MeOH/Water (1:1)” value ([2]; peptide 50 µmol L-1, MeOH/Water 1:1 v/v, 20 °C) is on record?
Answer: 0.02

Question: What about the “Helical fraction fH, PBS” value ([2]; peptide 50 µmol L-1, PBS pH 7.4, 20 °C) of the same substance?
Answer: 0.03

Question: And the “Helical fraction fH, POPC” value ([2]; peptide 50 µmol L-1, POPC 10 mmol L-1 vesicles, 20 °C)?
Answer: 0

Question: What about the “Helical fraction fH, POPC/DOPE (3:1)” value ([2]; peptide 50 µmol L-1, POPC:DOPE 3:1 mol:mol 10 mmol L-1 vesicles, 20 °C) of the same substance?
Answer: 0.03

Question: What about the “Helical fraction fH, POPC/POPG (3:1)” value ([2]; peptide 50 µmol L-1, POPC:POPG 3:1 mol:mol 10 mmol L-1 vesicles, 20 °C) of the same substance?
Answer: 0.04

Question: And the “Helical fraction fH, SDS” value ([2]; peptide 50 µmol L-1, SDS 20 mmol L-1 micelles, 20 °C)?
Answer: 0.13

Question: What about the “Helical fraction fH, TFE/Water (2:3)” value ([2]; peptide 50 µmol L-1, TFE/Water 2:3 v/v, 20 °C) of the same substance?
Answer: 0.24

Question: And the “Helical fraction fH, TFE/Water (3:2)” value ([2]; peptide 50 µmol L-1, TFE/Water 3:2 v/v, 20 °C)?
Answer: 0.21

Question: What about the “Helical fraction fH, TFE/Water (4:1)” value ([2]; peptide 50 µmol L-1, TFE/Water 4:1 v/v, 20 °C) of the same substance?
Answer: 0.31

Question: What about the “Helical fraction fH, Water” value ([2]; peptide 50 µmol L-1, water, 20 °C, 1 mm cell) of the same substance?
Answer: 0.05

Question: And the “HPLC Retention Time” value [3]?
Answer: 9.2 min

Question: Which “Resistance” value [1] does the source give for “ILGKILGLLKSL-NH2 [Peptide 15, [Lys]^4-Pol-CP-NH2]” here?
Answer: increased resistance to protease-mediated degradation

Question: And the remaining at 6 h ([1]; six hours of exposure, read-out: Remaining peptide after exposure to fetal bovine serum)?
Answer: ~50%

Question: And the “Cytotoxic concentration relative to MIC against P. aeruginosa” value [4]?
Answer: two-fold to four-fold higher than their MICs

Question: With “ILGTILGLLKSL-NH2 [WT, Pol-CP-NH2, reference compound]” as the substance, how does the “Toxicity to mice / body weight, in words” value [5] read?
Answer: did not change abruptly

Question: What about the “Cytotoxicity (concentration showing cytotoxic activity)” value ([4]; listed as wild-type peptide) of the same substance?
Answer: 32 µmol/L

Question: For “ILGTILKLLKSL-NH2 [Peptide 16, [Lys]^7-Pol-CP-NH2]”, which “Toxicity to mice / body weight, in words” value [5] is on record?
Answer: did not change abruptly; also recorded: non-toxic to mice

Question: What about the “Resistance” value [1] of the same substance?
Answer: increased resistance to protease-mediated degradation

Question: What about the “Cytotoxicity (concentration showing cytotoxic activity)” value [4] of the same substance?
Answer: 16 µmol/L

Question: What about the “Cytotoxic concentration relative to MIC against P. aeruginosa” value [4] of the same substance?
Answer: two-fold to four-fold higher than their MICs
